Our source for the logD values is the SangsterLogP compilation.

A short description of the first data set: method code SF, from DOI: 10.1016/j.ejps.2012.10.019, PMID: 23131797. The following applies: pH 2.0.
The term logD denotes lipophilicity at a set pH, counting ionised and neutral species. A high value points to higher lipophilicity. Turning to `CC(C)=CC(=O)OCC(=O)Nc1ccc(S(=O)(=O)N(C)C)cc1`, the logD came out at 2.26. In turn, `CC(=O)c1sc(SCCOc2ccccc2)nc1C` yielded a logD of 3.86. `Cc1cccc(C)c1NC(=O)CNC(=O)C1CCN(S(=O)(=O)c2cccc(Cl)c2Cl)CC1`: the logD stood at 3.41.

Staying with this data set, now noted: pH 5.0.
Take `O=C(Cn1cc(C(=O)C(F)(F)F)c2cc(Br)ccc21)N1CCCCCC1`: the logD came to 4.62. In turn, `O=C1c2ccccc2C(=O)N1c1ccccc1C(F)(F)F` displayed a logD of 3.55. The same measure, in the same setting: then `CCn1cc(-c2nc3c4c(C)c(C)sc4ncn3n2)cn1`, with 3.77. Still for that read-out and setting: in the case of `COc1ccc(C=O)cc1COc1c(F)c(F)cc(F)c1F` it was 4.24; in that of `O=C(Cn1c(=O)n(-c2ccccc2)c(=O)n1CC(=O)N1CCCCC1)N1CCCCC1`, 2.78; in that of `CC(C)N(Cc1nc(-c2ccccc2)no1)C(=O)c1ccccc1CCc1ccccc1`, 5.98. For the compound `O=C(COc1ccc2ccccc2c1)N1CCN(S(=O)(=O)c2ccc3c(c2)OCCO3)CC1`, the logD was 4.47.

`Cc1cc(C(=O)COC(=O)c2oc3ccccc3c2COC(C)C)c(C)n1-c1c(C)n(C)n(-c2ccccc2)c1=O` returned a logD of 5.39. `CC(NS(C)(=O)=O)c1ccccc1` (stereo unspecified) gave a logD of 1.8. Still for that read-out and setting: in the case of `COc1ccc(OC)c(NC(=O)c2ccc(NC3=C(Cl)C(=O)N(C4CCCCC4)C3=O)cc2)c1` it was 5.96; in that of `CCCC(=O)N1CC2(C)CN(C(=O)CCC)CC(C)(C1)C2`, 2.69. For the compound `Cc1c(OCc2ccccc2)cccc1[N+](=O)[O-]`, the logD worked out at 4.41.

As for `Cc1ccc(-c2cc(C(F)F)n3ncc(C(=O)N4CCSCC4)c3n2)cc1`, the logD came out at 4.55. As to `O=P(OCC(F)(F)F)(OCC(F)(F)F)N1CCOCC1`, the logD turned out to be 2.69. For the compound `CCCCC(=O)Nc1ccc(F)c([N+](=O)[O-])c1`, the logD came out at 3.04.

Take `O=C(c1ccc(F)cc1)C1CC1`: the logD was found to be 2.61.

Take `CC1=CC(C)C(CO)(CO)C(C)C1` (stereo unspecified): the logD was 2.93. Take `CCc1c(C#N)c(SCC(=O)N2CCc3cc(OC)c(OC)cc3C2)nc2c1C(=O)CC(C)(C)C2`: the logD was 4.89. Same read-out and setting: then `COc1cccc(-c2cn3c4c(=O)n(C)c(=O)n(C)c4nc3n2-c2cccc(C)c2)c1`, with 4.16; and `Cc1c(C(=O)Nc2ccc(S(=O)(=O)N3CCCCCC3)cc2)oc2ccc(F)cc12`, with 5.68. Compound `CCCS(=O)(=O)c1c(S(=O)(=O)CCC)c2cnccn2c1C(=O)c1ccc(C)cc1` had a logD of 3.93. On to `COc1ccccc1Nc1nc(OCC(F)(F)F)nc(OCC(F)(F)F)n1`, for which the logD came to 5.27. `CN(C1=NS(=O)(=O)c2ccccc21)c1ccc(OC(=O)c2ccccc2)cc1`: the logD was 4.26. The same measure, in the same setting: then `Cc1ccccc1-c1noc(CCl)n1`, with 3.3; and `CCOC(=O)c1[nH]c2c(c1C)C(Cl)=C(C=O)CC2`, with 3.92. Compound `COc1ccc(C(=O)CSc2nnc(-c3ccccc3)o2)cc1` returned a logD of 4.15. Compound `O=C(NC1CCCC1)C1c2ccccc2Oc2ccccc21` registered a logD of 3.95. Consider `Cc1ccc(C)c(S(=O)(=O)N(C)c2ccc(OC(=O)c3ccc4c(c3)OCO4)cc2)c1`, for which the logD was found to be 5.87.

Take `Cc1ccc(S(=O)(=O)N2CCCN(S(=O)(=O)c3ccc(C)cc3C)CC2)c(C)c1`: the logD is 5.01. `NC(=O)C1CCN(C(=O)c2ccc3c(=O)n(Cc4ccco4)c(SCC(=O)c4ccccc4)nc3c2)CC1` yielded a logD of 5.31. The compound `COC(=O)c1ccc(Br)c(S(=O)(=O)N2CCCCC2)c1` had a logD of 3.66.

For `COc1c(Cl)ccc(Cl)c1C(=O)Nc1ccc(C)cc1C`, the logD came out at 4. In turn, `CCn1ccc(CN(C)C(=O)c2ccccc2COc2ccc(F)cc2F)n1` registered a logD of 4.43.

On to `Cc1cc2nsnc2c([N+](=O)[O-])c1C`, for which the logD was 2.64. With `COc1cc(C(=O)c2ccc(F)cc2)cc(C(=O)c2ccc(F)cc2)c1`, the logD came out at 4.89. The compound `CCc1ccc(OCC(=O)NCCc2ccc(OC)c(OC)c2)cc1` registered a logD of 4.22.

Consider `CCOC(=O)N1CCN(C(=O)/C=C/c2ccc(Cl)c(Cl)c2)CC1`, for which the logD amounted to 4.34. `CC(C)OCCCNC(=O)C(=O)NCc1ccc(C(C)C)cc1` showed a logD of 4.57. In turn, `CC(C)NC(=S)N1CCN(S(=O)(=O)c2cccc(C(F)(F)F)c2)CC1` yielded a logD of 3.9. `Clc1ccc(CSc2ncccn2)cc1Cl` showed a logD of 4.33.

As to `COc1ccc(N2C(=O)Cc3ccccc3C2=O)cc1`, the log distribution coefficient (logD) came out at 2.56. `O=C(Nc1ccccc1C(F)(F)F)NC1CCCCC1` showed a logD of 4. `COC(=O)c1cnn2c(C(F)(F)F)cc(-c3cc(OC)c(OC)c(OC)c3)nc12`: the logD is 4.08. In turn, `O=C1CC(c2cccc([N+](=O)[O-])c2)CC2=C1C(c1ccco1)N(C(=O)C(F)(F)F)c1ccccc1N2` (stereo unspecified) came in with a logD of 4.68. With `C=CCOC(=O)COc1ccc2c(=O)c(-c3ccc(Cl)cc3)c(C)oc2c1`, the logD was 4.84. On to `COc1nc(Cl)nc(Nc2ccccc2)n1`, for which the logD is 2.89.

Still in this data set, the particulars now being: pH 6.5.
In the case of `COC(=O)c1cccc(NC(=O)c2cc(C(=O)Nc3cccc(C(=O)OC)c3)cc(N3C(=O)c4ccccc4C3=O)c2)c1`, the logD was found to be 6.09. Turning to `CCN(CC)C(=O)c1sc(NC(=O)c2cc(OC)cc(OC)c2)c(C(=O)OC)c1C`, the logD was 5.47. `CS(=O)(=O)N(CC(=O)Nc1c(F)cccc1F)c1cc(Cl)c(Cl)cc1Cl` registered a logD of 4.34. Still for that read-out and setting: then `O=C(COc1nnc(SCC(=O)c2ccc3c(c2)OCCO3)n1C1Cc2ccccc2C1)c1ccc(F)cc1`, with 5.47.

With `N#CCOC(=O)c1ccccc1SCC(=O)N1CCCC1`, the logD was 2.57. `Cc1c(C)c(C)c(CSc2nnc(CC#N)n2C)c(C)c1C`: the logD came out at 4.14.

As to `CC(=O)Nc1nc2cc3sc(NC(C)=O)nc3cc2s1`, the logD worked out at 3.13.

Staying with this data set, now noted: pH 7.3.
The compound `O=C(c1cccnc1)N1CCN(S(=O)(=O)c2ccccc2)CC1` came in with a logD of 2.3. With `COC(=O)c1cc(OC)c(OC)cc1NC(=O)CSc1nncn1C`, the logD is 2.78. The same measure, in the same setting: then `COC(=O)c1sc(N)nc1C`, with 1.48.

The compound `CCn1c(SCc2nc3c4cnn(C)c4ncn3n2)nnc1-c1cc(C(F)(F)F)n(C)n1` showed a logD of 3.85. Still for that read-out and setting: in the case of `Cc1nccn1S(=O)(=O)c1ccc(Cl)cc1` it was 2.93; in that of `Cn1c(SCc2cc(F)cc(F)c2)nnc1-c1ccc2nonc2c1`, 3.68. As to `CCc1ccccc1Nc1nc(N)nc(CSc2nnc(-c3ccc(OC(F)F)cc3)n2N)n1`, the pH-dependent lipophilicity (logD) was found to be 4.35.

`Cc1cc2ccccc2c(=O)n1CC(=O)NCC(=O)N1CCN(c2cccc(Cl)c2)CC1` displayed a logD of 4.45. The logD values of the last two compounds are within 0.2 log units of each other.

Compound `CCOC(=O)C1CCN(S(=O)(=O)c2nc3nc(C)cc(C)n3n2)CC1` gave a logD of 2.71. Turning to `CCn1c(SCC(=O)Nc2ccc(C(=O)OC)cc2)nnc1-c1ccccc1`, the log distribution coefficient (logD) is 4.24. In turn, `CC1CCCC(C)N1C(=O)CSc1nnc(-c2ccco2)n1Cc1ccccc1` (stereo unspecified) yielded a logD of 4.49. On the same count and under the same terms, then `C=CCn1c(SCC(=O)NCc2ccc(C(=O)OCC)cc2)nc2sc(C)c(C)c2c1=O`, with 4.83; and `COc1cccc(-c2ccc3c(N)c(C(=O)Nc4ccc(F)c(F)c4)sc3n2)c1`, with 5.86; and `O=C(Nc1cccc(-c2cnc3ccccc3n2)c1)c1cccs1`, with 4.34. For `O=C(CSc1nnc(-c2ccccc2F)n1CCc1ccccc1)N1CCOCC1`, the logD was 3.79.

Still in this data set, the particulars now being: pH 10.0.
`Cn1c(N)c(C(=O)COC(=O)C2CC2)c(=O)n(C)c1=O` registered a logD of 2.17.

In turn, `Cc1ccc(C)n1-c1ccc(-c2ccnc3ncnn23)cc1` came in with a logD of 3.5. The compound `CC1(C)CC(=O)C2=C(C1)OC(N)=C(C#N)C21CCC2(CC1)OCCO2` displayed a logD of 3.24. `CN(C)S(=O)(=O)c1cccc(C(=O)NCCc2ccc(Cl)cc2Cl)c1` gave a logD of 4.48. Compound `CCOC(=O)CC1=Nn2c(nnc2-c2cccs2)SC1` returned a logD of 2.98. The compound `Cc1ccc2c(C)nc(Nc3nc4c(c(=O)[nH]3)CCCC4)nc2c1` showed a logD of 3.92. `O=C(c1ccc2c(c1)C(=O)N(c1nccs1)C2=O)c1ccc2c(c1)C(=O)N(c1nccs1)C2=O` displayed a logD of 3.25.

Staying with this data set, now noted: pH 10.5.
In turn, `COC(=O)COc1cc2occ(-c3csc(C)n3)c(=O)c2cc1C` displayed a logD of 3.9. Same read-out and setting: then `Cc1nc2c(N)nnc(N)c2nc1C`, with 1.14; and `CC(C)(C)c1cc(Cc2ccccc2)n[nH]1`, with 4.35. As to `Cc1cc(C)n2nc(SCC(=O)NCCNC(=O)CSc3nc4nc(C)cc(C)n4n3)nc2n1`, the logD turned out to be 0.82. Take `CC(C)(C)c1cc(-c2nc(-c3ccc(C(F)(F)F)cn3)no2)n(Cc2ccccc2)n1`: the logD worked out at 6.58.

As to `CCOC(=O)N1CCN(c2nc(C(F)(F)F)nc3c(C)cc(C)cc23)CC1`, the logD was 5.92. Turning to `Cc1cc(C)n2c(SCc3ccc(C(=O)c4ccccc4)cc3)nnc2n1`, the logD stood at 4.43.

Take `Cc1cc(C)n(C2=NCCN2S(=O)(=O)c2cc(C(F)(F)F)cc(C(F)(F)F)c2)n1`: the logD is 4.7.

Compound `C=C(C)CSc1nnc(-c2cccc(S(=O)(=O)N3CCOCC3)c2)n1C1CCCC1` showed a logD of 4.73. `Cc1nc(N(C)C)c2sc(=S)n(-c3ccccc3)c2n1` gave a logD of 3.62. `O=C(CSc1nnc(-c2ccccc2)n1-c1ccccc1)N1CCN(C(=O)c2ccccc2)CC1`: the logD stood at 4.64. As to `COc1ccc(-c2nnc(SCC(=O)c3c(N)n(C)c(=O)n(C)c3=O)n2-c2cccc(C(F)(F)F)c2)cc1`, the logD was 4.89.

The compound `Cc1c(C(=O)N2CCN(S(=O)(=O)c3ccccc3)CC2)sc2nc3n(c(=O)c12)CCCCC3` returned a logD of 4.13. Regarding `CCOc1ccc(NC(=O)CN(C)C(=O)c2ccc(C)o2)cc1OCC`, the logD was found to be 2.09.

The compound `Nc1cccc2c1C(=O)N(C(=O)c1cc(-c3ccccc3Cl)nc3ccccc13)C2=O` registered a logD of 4.63. Still for that read-out and setting: then `COCCn1c(C)cc(C(=O)CSc2nnc3[nH]c4ccccc4n23)c1C`, with 3.45; and `Cc1ccc(-n2c(C)cc(=O)cc2C)cc1C`, with 2.95. `CCc1ccc2nc3c(cc2c1)c(=O)n(-c1ccccc1)c1c3c(=O)n(C)c(=O)n1C`: the logD was determined as 4.31.
